Data published in patent publication US20220017566A1, “TERPINOID DERIVATIVES AND USES THEREOF” (SICHUAN HAISCO PHARMACEUTICAL CO., LTD., priority 2018, published 2022).
pEC50, pIC50: −log10 of the molar value.

Legend:
[1] = Metabolic stability in human liver microsomes; assay type: in vitro ADME
Procedure: (§1) The metabolic stability of test compounds was examined in CD-1 mouse, Sprague Dawley rat, Beagle dog, cynomolgus monkey, and human liver microsomes. Test compound (final concentration 1 μM) was mixed with diluted liver microsomes from each of the 5 species and a small aliquot was taken at 0, 5, 10, 20, 30, and 60 minutes for LC/MS/MS analysis. Intrinsic clearance and half-life were calculated.

[2] = biological target: T1, CYP2C19 (Homo sapiens, UniProt P33261); test: CYP450 enzyme inhibition in liver microsomes (cocktail probe incubation); assay type: in vitro ADME; details: species not given, 0.05-50 μM tested
T1 construct: studied in liver microsomes of CD-1 mouse, Sprague Dawley rat, Beagle dog, cynomolgus monkey, and human; from tissue; host or cells: liver microsomes
T1 sequence (P33261 whole entry): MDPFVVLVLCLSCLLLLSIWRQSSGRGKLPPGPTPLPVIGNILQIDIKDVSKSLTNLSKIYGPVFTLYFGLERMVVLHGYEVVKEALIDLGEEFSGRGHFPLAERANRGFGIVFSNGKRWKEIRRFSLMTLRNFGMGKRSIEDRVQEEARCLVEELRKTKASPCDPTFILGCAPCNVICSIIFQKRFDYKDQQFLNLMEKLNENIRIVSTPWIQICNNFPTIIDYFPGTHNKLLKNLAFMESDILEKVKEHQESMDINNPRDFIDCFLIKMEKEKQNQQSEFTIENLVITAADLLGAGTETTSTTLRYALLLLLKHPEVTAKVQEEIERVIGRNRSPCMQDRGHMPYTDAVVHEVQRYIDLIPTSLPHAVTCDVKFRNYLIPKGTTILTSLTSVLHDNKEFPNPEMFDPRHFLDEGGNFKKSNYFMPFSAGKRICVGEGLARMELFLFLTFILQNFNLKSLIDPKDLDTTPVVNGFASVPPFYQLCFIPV
Procedure: (§2) The inhibition potential of test compounds towards major drug metabolizing CYP450 enzymes was studied in liver microsomes of CD-1 mouse, Sprague Dawley rat, Beagle dog, cynomolgus monkey, and human. The inhibition of CYP1A2, CYP2C9, CYP2C19, CYP2D6, and CYP3A4 was assessed using CYP450 specific probe reactions in a cocktail incubation. Seven concentrations of test compounds (0.05, 0.15, 0.5, 1.5, 5, 15, and 50 μM) were evaluated. In addition, known inhibitors for each probe reaction were included as positive controls and incubated at a single concentration above their respective IC50.

[3] = biological target: T2, CYP3A4 (Homo sapiens, UniProt P08684); test: as above; assay type: in vitro ADME; details: species not given, 0.05-50 μM tested
T2 construct: studied in liver microsomes of CD-1 mouse, Sprague Dawley rat, Beagle dog, cynomolgus monkey, and human; from tissue; host or cells: liver microsomes
T2 sequence (P08684 whole entry): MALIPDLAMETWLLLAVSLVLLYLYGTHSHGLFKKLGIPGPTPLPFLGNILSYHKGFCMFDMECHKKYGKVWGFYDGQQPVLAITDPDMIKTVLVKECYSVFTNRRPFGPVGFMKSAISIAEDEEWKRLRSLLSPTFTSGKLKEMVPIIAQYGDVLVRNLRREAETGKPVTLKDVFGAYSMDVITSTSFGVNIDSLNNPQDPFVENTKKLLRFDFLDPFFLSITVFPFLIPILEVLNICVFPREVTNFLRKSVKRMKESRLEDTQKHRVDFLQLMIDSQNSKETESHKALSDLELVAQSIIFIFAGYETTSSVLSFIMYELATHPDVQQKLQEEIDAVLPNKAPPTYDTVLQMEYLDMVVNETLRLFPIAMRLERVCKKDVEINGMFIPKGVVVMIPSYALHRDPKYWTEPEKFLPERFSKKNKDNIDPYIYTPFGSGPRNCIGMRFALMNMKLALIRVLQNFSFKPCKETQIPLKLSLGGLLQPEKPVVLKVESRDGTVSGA
Procedure: as §2

[4] = biological target: T3, CYP2D6 (Homo sapiens, UniProt P10635); test: as above; assay type: in vitro ADME; details: species not given, 0.05-50 μM tested
T3 construct: studied in liver microsomes of CD-1 mouse, Sprague Dawley rat, Beagle dog, cynomolgus monkey, and human; from tissue; host or cells: liver microsomes
T3 sequence (P10635 whole entry): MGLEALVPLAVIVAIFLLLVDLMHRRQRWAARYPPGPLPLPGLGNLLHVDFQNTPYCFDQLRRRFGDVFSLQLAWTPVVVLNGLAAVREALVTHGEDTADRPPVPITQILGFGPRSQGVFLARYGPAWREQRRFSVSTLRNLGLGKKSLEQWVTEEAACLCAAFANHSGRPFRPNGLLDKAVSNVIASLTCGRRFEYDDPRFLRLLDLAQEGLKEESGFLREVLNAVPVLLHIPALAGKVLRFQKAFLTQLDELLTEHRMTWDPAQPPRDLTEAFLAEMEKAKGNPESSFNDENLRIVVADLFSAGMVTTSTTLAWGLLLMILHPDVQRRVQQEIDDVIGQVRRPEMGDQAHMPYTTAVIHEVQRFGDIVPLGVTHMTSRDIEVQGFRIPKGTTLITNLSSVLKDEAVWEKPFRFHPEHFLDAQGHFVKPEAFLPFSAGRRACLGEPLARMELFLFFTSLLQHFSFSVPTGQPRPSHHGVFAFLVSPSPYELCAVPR
Procedure: as §2

[5] = biological target: T4, CYP1A2 (Homo sapiens, UniProt P05177); test: as above; assay type: in vitro ADME; details: species not given, 0.05-50 μM tested
T4 construct: studied in liver microsomes of CD-1 mouse, Sprague Dawley rat, Beagle dog, cynomolgus monkey, and human; from tissue; host or cells: liver microsomes
T4 sequence (P05177 1-516): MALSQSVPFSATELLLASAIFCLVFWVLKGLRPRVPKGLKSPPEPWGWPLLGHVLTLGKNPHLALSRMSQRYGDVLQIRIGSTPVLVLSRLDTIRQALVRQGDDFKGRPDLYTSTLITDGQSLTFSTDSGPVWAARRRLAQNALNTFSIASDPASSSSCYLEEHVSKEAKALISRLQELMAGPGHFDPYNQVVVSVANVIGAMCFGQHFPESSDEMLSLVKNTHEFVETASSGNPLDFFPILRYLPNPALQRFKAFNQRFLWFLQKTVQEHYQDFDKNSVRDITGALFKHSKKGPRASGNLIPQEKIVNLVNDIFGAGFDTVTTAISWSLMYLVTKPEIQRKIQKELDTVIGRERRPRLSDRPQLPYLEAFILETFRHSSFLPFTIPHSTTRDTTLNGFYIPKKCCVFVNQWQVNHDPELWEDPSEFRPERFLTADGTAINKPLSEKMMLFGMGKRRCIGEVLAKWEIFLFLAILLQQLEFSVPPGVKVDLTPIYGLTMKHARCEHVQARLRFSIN
Procedure: as §2

[6] = biological target: T5, CYP2C9 (Homo sapiens, UniProt P11712); test: as above; assay type: in vitro ADME; details: species not given, 0.05-50 μM tested
T5 construct: studied in liver microsomes of CD-1 mouse, Sprague Dawley rat, Beagle dog, cynomolgus monkey, and human; from tissue; host or cells: liver microsomes
T5 sequence (P11712 whole entry): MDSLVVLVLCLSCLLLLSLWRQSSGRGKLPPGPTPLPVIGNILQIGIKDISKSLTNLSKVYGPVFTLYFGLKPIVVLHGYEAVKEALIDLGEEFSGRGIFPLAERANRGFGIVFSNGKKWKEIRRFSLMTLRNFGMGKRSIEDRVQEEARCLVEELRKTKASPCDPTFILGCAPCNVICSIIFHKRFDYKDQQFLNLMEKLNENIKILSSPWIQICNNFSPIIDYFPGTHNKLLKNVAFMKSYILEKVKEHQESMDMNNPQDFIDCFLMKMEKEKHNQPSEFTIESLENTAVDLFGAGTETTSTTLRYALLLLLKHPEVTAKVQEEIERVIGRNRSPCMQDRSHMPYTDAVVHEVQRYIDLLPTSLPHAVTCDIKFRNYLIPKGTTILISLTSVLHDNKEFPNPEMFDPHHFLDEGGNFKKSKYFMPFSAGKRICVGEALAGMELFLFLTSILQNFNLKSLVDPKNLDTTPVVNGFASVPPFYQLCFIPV
Procedure: as §2

[7] = system: NQO1; test: NQO1 activity assay in Raw264.7 cell lysates; assay type: cell-based; details: Mus musculus; Raw264.7 cells, 48 hours treatment
Procedure: Raw264.7 cells were seeded in DMEM+10% FBS in 96-well plates at a density of 10,000 cells per well. 6 hours after plating, cells were treated with DMSO or test compounds (top dose 100 nM, 1:4 serial dilution, 8-point) for 48 hours. NQO1 activity was then detected in cell lysates using NQO1 activity assay kit (Abeam, Cat#ab184867). NQO1 activity was then plotted against compound concentration, and EC50 values were calculated using four-parameter algorithm in Graphpad Prism.

[8] = Metabolic stability in dog liver microsomes; assay type: in vitro ADME; details: Beagle
Procedure: as §1

[9] = Metabolic stability in monkey liver microsomes; assay type: in vitro ADME, cynomolgus monkey
Procedure: as §1

[10] = Metabolic stability in mouse liver microsomes; assay type: in vitro ADME, CD-1 mouse; details: CD-1
Procedure: as §1

[11] = Metabolic stability in rat liver microsomes; assay type: in vitro ADME; details: Sprague Dawley
Procedure: as §1

[12] = system: IFNγ-induced NO production in Raw 264.7 cells; test: Nitric oxide assay: suppression of IFNγ-induced NO production (Griess nitrite, adjusted to live cell numbers); assay type: cell-based; details: Mus musculus, RAW264.7, 2 h pretreatment, IFNγ 10 ng/ml for 24 hours
Procedure: Raw 264.7 cells were seeded in 96-well plates at a density of 30, 000 cells per well in DMEM+10% FBS and incubated overnight. The next day, cell media was replaced by DMEM+2% FBS. Cells were pretreated with DMSO or test compounds (top dose 100 nM, 1:4 serial dilution, 10-point) for 2 hours and then treated with recombinant mouse IFNγ (R&D, Cat# 485-MI-100) at a final concentration of 10 ng/ml for 24 hours. Nitrite levels were measured in culture media as a surrogate for nitric oxide using the Griess Reagent System (Promega, Cat# G2930). Cell viability was determined using CellTiter Glo reagents (Promega, Cat#G7572). The nitrite levels were adjusted to live cell numbers and inhibition percentage was calculated. The inhibition percentage was then plotted against compound concentration, and IC50 values were calculated using four-parameter algorithm in Graphpad Prism.

CLint scaled at 1 μM [1] [mL/min/kg] | half-life at 1 μM [1] [min] | pIC50 [2] | pIC50 [3] | pIC50 [4] | pIC50 [5] | pIC50 [6] | pEC50 [7] | CLint scaled at 1 μM [8] [mL/min/kg] | half-life at 1 μM [8] [min] | CLint scaled at 1 μM [9] [mL/min/kg] | half-life at 1 μM [9] [min] | CLint scaled at 1 μM [10] [mL/min/kg] | half-life at 1 μM [10] [min] | CLint scaled at 1 μM [11] [mL/min/kg] | half-life at 1 μM [11] [min] | pIC50 [12] | SMILES
50.7 | 24.6 | 4.75 | 5.17 | 5.33 | < 4.30 | 5.47 | 7.00 to 8.00 | 81.6 | 24.5 | 156 | 12 | 150 | 36.5 | 50.3 | 49.6 | > 8.00 | CNC(=NC#N)NC[C@]12CCC(C)(C)C[C@H]1[C@H]1C(=O)C=C3[C@@]4(C)C=C(C#N)C(=O)C(C)(C)[C@@H]4CC[C@@]3(C)[C@]1(C)CC2 [Example 3, 2-cyano-1-(((4aS,6aR,6bS,8aR,12aS,14aR,14bS)-11-cyano-2,2,6a,6b,9,9,12a-heptamethyl-10,14-dioxo-1,3,4,5,6,6a,6b,7,8,8a,9,10,12a,14,14a,14b-hexadecahydropicen-4a(2H)-yl)methyl)-3-methylguanidine]
 |  | 4.72 | 5.49 | < 4.30 | < 4.30 | 5.07 | > 8.00 |  |  |  |  |  |  |  |  | > 8.00 | CC1(C)C(=O)C(C#N)=C[C@]2(C)C3=CC(=O)[C@@H]4[C@@H]5C[C@@](C)(N6CCC(O)C6)CC[C@]5(C)CC[C@@]4(C)[C@]3(C)CC[C@@H]12 (stereo partly drawn) [Example 20, (4aR,6aS,6bR,8aS,11S,12aS,12bR,14bS)-11-(3-hydroxypyrrolidin-1-yl)-4,4,6a,6b,8a,11,14b-heptamethyl-3,13-dioxo-3,4,4a,5,6,6a,6b,7,8,8a,9,10,11,12,12a,12b,13,14b-octadecahydropicene-2-carbonitrile]
 |  |  |  |  |  |  | 7.00 to 8.00 |  |  |  |  |  |  |  |  | > 8.00 | C/S(CC(=O)N[C@]12CCC(C)(C)C[C@H]1[C@H]1C(=O)C=C3[C@@]4(C)C=C(C#N)C(=O)C(C)(C)[C@@H]4CC[C@@]3(C)[C@]1(C)CC2)=N\C#N (stereo partly drawn) [Example 5, N-((4aS,6aR,6bS,8aR,12aS,14aR,14bS)-11-cyano-2,2,6a,6b,9,9,12a-heptamethyl-10,14-dioxo-1,3,4,5,6,6a,6b,7,8,8a,9,10,12a,14,14a,14b-hexadecahydropicen-4a(2H)-yl)-2-((E)-N-cyano-S-methylsulfinimidoyl)acetamide]
